Measured values reported in patent US10912803B2, “Probiotic and polyphenol against neurodegeneration” (NESTEC S.A., priority 2012, dated 2021).

Columns and labels:
[1] = biological target: T1, size exclusion purified protofibrillar mixture of Aβ42 (PF) (Homo sapiens, UniProt P05067); assay: Assay 2: Targeting protofibrillar Aβ assay, ThT fluorescence; type: biochemical; settings: for PF (effects of compounds compared to control without compounds) - signal intensity: 37° C; for Inhibition of Aβ fibrillization: PF, ratio and time not stated
T1 construct: size exclusion purified protofibrillar mixture of Aβ42 (PF)
Procedure: Assay 2: Targeting Protofibrillar Aβ Assay (Timeframe 24-48 Hrs) (See FIGS. 1 and 2A-2D):
In this assay it was started with a size exclusion purified protofibrillar mixture of Aβ42 (PF). This was incubated with the compound of interest (C) at 37° C. The extent of aggregation was then assessed at 24 and 48 hrs by Thioflavin T (ThT) fluorescence. […] This could occur via at least two mechanisms; i) blocking protofibrils to fibril transition or ii) inducing the dissociation/disaggregation of protofibrils.
(§1) Aβ42 LMW and PF were used at a final concentration of […] and incubated alone or with the compounds at a ratio of 1:0.5 or 1:2.

[2] = biological target: T2, size exclusion purified monomeric Aβ42 (LMW) (Homo sapiens, UniProt P05067); assay: Assay 1: Targeting monomeric Aβ assay, ThT fluorescence; type: biochemical; settings: for LMW (effects of compounds compared to control without compounds) - signal intensity: 37° C; for Inhibition of Aβ fibrillization: LMW, ratio and time not stated
T2 construct: size exclusion purified monomeric Aβ42 (LMW)
Procedure: Assay 1: Targeting Monomeric Aβ Assay (Timeframe 24-48 Hrs) (See FIG. 1):
In this assay, it was started with size exclusion purified monomeric Aβ42 (LMW). This was incubated with a compound of interest (C) at 37° C. The extent of aggregation was then assessed at 24 and 48 hrs by Thioflavin T (ThT) fluorescence. […] However, it is difficult to infer from this assay alone at which point along the amyloid formation pathway the compound acts, i.e., does interfere with monomer to protofibrils transition or block protofibrils to fibril transition.
as §1

[3] = 24 h, ratio Aβ42:compound 1:0.5, Aβ42 10 pM

T2 sequence (P05067 672-713 limits assumed): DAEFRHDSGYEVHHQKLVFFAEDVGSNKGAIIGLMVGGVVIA
T1 sequence (P05067 672-713 limits assumed): as above

O=C(/C=C/c1ccc(O)c(O)c1)O[C@@H](C(=O)O)[C@@H](O)C(=O)O [NP7, Caftaric acid]
PF (effects of compounds compared to control without compounds) - signal intensity ([1]; 24 h, ratio 1:0.5, Aβ42 10 pM): Decrease
PF (effects of compounds compared to control without compounds) - signal intensity ([1]; 24 h, ratio 1:2, Aβ42 10 pM): Decrease
PF (effects of compounds compared to control without compounds) - signal intensity ([1]; 48 h, ratio 1:0.5, Aβ42 10 pM): Decrease
PF (effects of compounds compared to control without compounds) - signal intensity ([1]; 48 h, ratio 1:2, Aβ42 10 pM): Decrease
Inhibition of Aβ fibrillization [1]: 35%
LMW (effects of compounds compared to control without compounds) - signal intensity ([2]; 24 h, ratio 1:2, Aβ42 10 pM): Decrease
LMW (effects of compounds compared to control without compounds) - signal intensity [2, 3]: Decrease
LMW (effects of compounds compared to control without compounds) - signal intensity ([2]; 48 h, ratio 1:0.5, Aβ42 10 pM): Decrease
LMW (effects of compounds compared to control without compounds) - signal intensity ([2]; 48 h, ratio 1:2, Aβ42 10 pM): Decrease
Inhibition of Aβ fibrillization [2]: 42%

Chicoric acid [NP5]
PF (effects of compounds compared to control without compounds) - signal intensity ([1]; 24 h, ratio 1:0.5, Aβ42 10 pM): Decrease
PF (effects of compounds compared to control without compounds) - signal intensity ([1]; 24 h, ratio 1:2, Aβ42 10 pM): Decrease
PF (effects of compounds compared to control without compounds) - signal intensity ([1]; 48 h, ratio 1:0.5, Aβ42 10 pM): Decrease
PF (effects of compounds compared to control without compounds) - signal intensity ([1]; 48 h, ratio 1:2, Aβ42 10 pM): Decrease
Inhibition of Aβ fibrillization [1]: 41%
LMW (effects of compounds compared to control without compounds) - signal intensity ([2]; 24 h, ratio 1:2, Aβ42 10 pM): Decrease
LMW (effects of compounds compared to control without compounds) - signal intensity [2, 3]: Decrease
LMW (effects of compounds compared to control without compounds) - signal intensity ([2]; 48 h, ratio 1:0.5, Aβ42 10 pM): Decrease
LMW (effects of compounds compared to control without compounds) - signal intensity ([2]; 48 h, ratio 1:2, Aβ42 10 pM): Decrease
Inhibition of Aβ fibrillization [2]: 50%
